Laboratory results from US20220348592A1, “FUSED HETEROCYCLIC DERIVATIVES” (Janssen Sciences Ireland Unlimited Company, priority 2019, published 2022).

Legend:
[1] = Cytotoxicity in HepG2.117 cells, ATPlite Luminescence Assay; assay type: cell-based, human; conditions: human, incubated for 3 days, mean value, read-out: TOX-HepG2.117 CC50 (μM, mean value)
Protocol: Cytotoxicity of the compounds was tested using HepG2 or HepG2.117 cells, incubated for 3 days in the presence of compounds. The viability of the cells was assessed using the PERKIN ELMER ATPlite Luminescence Assay System.”

[2] = system: HBV; test: Anti-HBV activity: intracellular HBV DNA by real-time PCR in HepG2.117 cell line; assay type: cell-based, Hepatitis B virus; conditions: Hepatitis B virus, 72 h; HepG2.117 cells, 3 days of treatment, intracellular HBV DNA by real-time PCR, mean value; read-out: HBV-AVE-HepG2.117 EC50 (μM, mean value)
Procedure, shortened: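 HepG2.117 cells, a Tet-off inducible HBV-producing line, induced to replicate HBV and then treated with serially diluted compound. After 3 days, intracellular HBV DNA quantified by real-time PCR with HBV-specific primers and probe.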

SMILES | CC50 at 3 days [1] [µM] | EC50 [2] [µM]
CC(c1cncnc1)N1CCn2nc3c(c2C1=O)CN(C(=O)c1ccc(Cl)c(Cl)c1)[C@H](C)C3 (stereo partly shown) [Example C103] | > 50 | 0.39
C[C@@H]1Cc2nn3c(c2CN1C(=O)c1ccn2cc(C(F)(F)F)nc2c1)C(=O)N(Cc1ccccn1)CC3 [Example C104] | > 50 | 0.632
COc1ccc(CN2CCn3nc4c(c3C2=O)CN(C(=O)c2ccc(Cl)c(Cl)c2)[C@H](C)C4)cn1 [Example C106] | 33.8 | 0.031
Cc1c(F)ccc2[nH]c(C(=O)N3Cc4c(nn5c4C(=O)N(Cc4ccccn4)CC5)C[C@H]3C)cc12 [Example C107] | 13.2 | 0.015
C[C@@H]1Cc2nn3c(c2CN1C(=O)c1cc2c(F)ccc(F)c2[nH]1)C(=O)N(Cc1ccccn1)CC3 [Example C108] | 20 | 0.085
Cc1cc(F)cc2[nH]c(C(=O)N3Cc4c(nn5c4C(=O)N(Cc4ccccn4)CC5)C[C@H]3C)cc12 [Example C109] | 18.9 | 0.013
C[C@@H]1Cc2nn3c(c2CN1C(=O)c1cc2c(F)cc(F)cc2[nH]1)C(=O)N(Cc1ccccn1)CC3 [Example C110] | 16 | 0.017
Cc1cc(C(=O)N2Cc3c(nn4c3C(=O)N(Cc3ccccn3)CC4)C[C@H]2C)ccc1Cl [Example C111] | > 50 | 0.086
C[C@@H]1Cc2nn3c(c2CN1C(=O)c1ccc(Cl)c(C(F)(F)F)c1)C(=O)N(Cc1ccccn1)CC3 [Example C112] | > 50 | 0.025
C[C@@H]1Cc2nn3c(c2CN1C(=O)c1ccc(OC(F)F)c(Cl)c1)C(=O)N(Cc1ccccn1)CC3 [Example C113] | > 50 | 0.257
Cc1ccc(F)c2[nH]c(C(=O)N3Cc4c(nn5c4C(=O)N(Cc4ccccn4)CC5)C[C@H]3C)cc12 [Example C114] | 30.9 | 0.048
C[C@@H]1Cc2nn3c(c2CN1C(=O)c1ccc(C(F)(F)F)cc1)C(=O)N(Cc1ccccn1)CC3 [Example C115] | > 50 | 0.265
C[C@@H]1Cc2nn3c(c2CN1C(=O)c1cc2c(Cl)cc(F)cc2[nH]1)C(=O)N(Cc1ccccn1)CC3 [Example C116] | 12.4 | 0.015
C[C@@H]1Cc2nn3c(c2CN1C(=O)c1cc2c(Cl)ccc(F)c2[nH]1)C(=O)N(Cc1ccccn1)CC3 [Example C117] | 18.2 | 0.119
C[C@@H]1Cc2nn3c(c2CN1C(=O)c1cc2c(C(F)F)c(F)ccc2[nH]1)C(=O)N(Cc1ccccn1)CC3 [Example C124] | 26.7 | 0.011
C[C@@H]1Cc2nn3c(c2CN1C(=O)c1cc2c(C(F)(F)F)c(F)ccc2[nH]1)C(=O)N(Cc1ccccn1)CC3 [Example C125] | > 50 | 0.037
CC(c1ccc(OC(F)(F)F)cc1)N1CCn2nc3c(c2C1=O)CN(C(=O)c1ccc(Cl)c(Cl)c1)[C@H](C)C3 (stereo partly shown) [Example C127] | 15.7 | 0.133
CC(c1ccc(F)nc1)N1CCn2nc3c(c2C1=O)CN(C(=O)c1ccc(Cl)c(Cl)c1)[C@H](C)C3 (stereo partly shown) [Example C128] | > 50 | 0.081
CC(c1ccccc1C#N)N1CCn2nc3c(c2C1=O)CN(C(=O)c1ccc(Cl)c(Cl)c1)[C@H](C)C3 (stereo partly shown) [Example C129] | > 50 | 0.143
CC(c1ccc(Cl)nc1)N1CCn2nc3c(c2C1=O)CN(C(=O)c1ccc(Cl)c(Cl)c1)[C@H](C)C3 (stereo partly shown) [Example C130] | 33.7 | 0.082
COc1cccc(C(C)N2CCn3nc4c(c3C2=O)CN(C(=O)c2ccc(Cl)c(Cl)c2)[C@H](C)C4)c1 (stereo partly shown) [Example C131] | 19.6 | 0.038
C[C@@H]1Cc2nn3c(c2CN1C(=O)c1ccc(Cl)c(Cl)c1)C(=O)N(Cc1cncc(Cl)c1)CC3 [Example C132] | > 50 | 0.061
C[C@@H]1Cc2nn3c(c2CN1C(=O)c1ccc(Cl)c(Cl)c1)C(=O)N(Cc1nccn1C(F)F)CC3 [Example C133] | > 50 | 0.332
CCCn1c(C)nnc1CN1CCn2nc3c(c2C1=O)CN(C(=O)c1ccc(Cl)c(Cl)c1)[C@H](C)C3 [Example C134] | > 50 | > 2.5

SMILES | CC50 at 3 days [1] [µM] | EC50 [2] [µM]
C[C@@H]1Cc2nn3c(c2CN1C(=O)c1ccc(Cl)c(Cl)c1)C(=O)N(Cc1ccn(CC(F)(F)F)n1)CC3 [Example C135] | > 50 | 0.1
Cc1nnc(CN2CCn3nc4c(c3C2=O)CN(C(=O)c2ccc(Cl)c(Cl)c2)[C@H](C)C4)n1C [Example C136] | > 50 | > 2.5
CC(C)n1ccc(CN2CCn3nc4c(c3C2=O)CN(C(=O)c2ccc(Cl)c(Cl)c2)[C@H](C)C4)n1 [Example C137] | > 50 | 0.056
Cc1cnc(CN2CCn3nc4c(c3C2=O)CN(C(=O)c2ccc(Cl)c(Cl)c2)[C@H](C)C4)o1 [Example C138] | > 50 | 0.061
Cc1cncc(CN2CCn3nc4c(c3C2=O)CN(C(=O)c2ccc(Cl)c(Cl)c2)[C@H](C)C4)c1 [Example C139] | > 50 | 0.04
Cc1cc(CN2CCn3nc4c(c3C2=O)CN(C(=O)c2ccc(Cl)c(Cl)c2)[C@H](C)C4)no1 [Example C141] | > 50 | 0.056
Cc1noc(C)c1CN1CCn2nc3c(c2C1=O)CN(C(=O)c1ccc(Cl)c(Cl)c1)[C@H](C)C3 [Example C142] | > 50 | 0.268
C[C@@H]1Cc2nn3c(c2CN1C(=O)c1ccc(Cl)c(Cl)c1)C(=O)N(Cc1noc(C2CC2)n1)CC3 [Example C143] | > 50 | 0.16
C[C@@H]1Cc2nn3c(c2CN1C(=O)c1ccc(Cl)c(Cl)c1)C(=O)N(Cc1ncnn1C)CC3 [Example C144] | > 50 | > 2.5
Cc1cc(CN2CCn3nc4c(c3C2=O)CN(C(=O)c2ccc(Cl)c(Cl)c2)[C@H](C)C4)on1 [Example C145] | > 50 | 0.106
Cc1nonc1CN1CCn2nc3c(c2C1=O)CN(C(=O)c1ccc(Cl)c(Cl)c1)[C@H](C)C3 [Example C146] | > 50 | 1.79
C[C@@H]1Cc2nn3c(c2CN1C(=O)c1ccc(Cl)c(Cl)c1)C(=O)N(Cc1cnn(C)c1)CC3 [Example C147] | > 50 | 0.054
Cc1noc(CN2CCn3nc4c(c3C2=O)CN(C(=O)c2ccc(Cl)c(Cl)c2)[C@H](C)C4)n1 [Example C148] | > 50 | 0.385
Cc1nc(C)c(CN2CCn3nc4c(c3C2=O)CN(C(=O)c2ccc(Cl)c(Cl)c2)[C@H](C)C4)o1 [Example C149] | > 50 | 0.059
Cc1ncsc1CN1CCn2nc3c(c2C1=O)CN(C(=O)c1ccc(Cl)c(Cl)c1)[C@H](C)C3 [Example C150] | > 50 | 0.075
Cc1nc(CN2CCn3nc4c(c3C2=O)CN(C(=O)c2ccc(Cl)c(Cl)c2)[C@H](C)C4)no1 [Example C151] | > 50 | 0.42
Cc1cccnc1CN1CCn2nc3c(c2C1=O)CN(C(=O)c1ccc(Cl)c(Cl)c1)[C@H](C)C3 [Example C152] | > 50 | 0.145
C[C@@H]1Cc2nn3c(c2CN1C(=O)c1ccc(Cl)c(Cl)c1)C(=O)N(Cc1cncc(F)c1)CC3 [Example C153] | > 50 | 0.082
Cc1cc(F)ccc1CN1CCn2nc3c(c2C1=O)CN(C(=O)c1ccc(Cl)c(Cl)c1)[C@H](C)C3 [Example C154] | 9.53 | 0.071
C[C@@H]1Cc2nn3c(c2CN1C(=O)c1ccc(Cl)c(Cl)c1)C(=O)N(Cc1cn(C)nc1C(F)F)CC3 [Example C155] | > 50 | 0.083
Cc1nc(CN2CCn3nc4c(c3C2=O)CN(C(=O)c2ccc(Cl)c(Cl)c2)[C@H](C)C4)co1 [Example C156] | > 50 | 0.174
Cc1cc(CN2CCn3nc4c(c3C2=O)CN(C(=O)c2ccc(Cl)c(Cl)c2)[C@H](C)C4)nn1C [Example C157] | > 50 | 0.02
Cc1nnc(CN2CCn3nc4c(c3C2=O)CN(C(=O)c2ccc(Cl)c(Cl)c2)[C@H](C)C4)n1C1CC1 [Example C158] | > 50 | 2.38
